Test results: the supplement of paper PMC8633005

Columns and labels:
Assay in all cases: drug sensitivity score (DSS) (DSS (unitless, 0-50 scale)); higher = more sensitive (stronger viability inhibition); extreme values may be limits of the assay
Conditions in all cases: 72 h; culture: 2D
Bowes = tested on: Bowes
Method in brief: (§1)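 Patient-derived melanoma cultures and melanoma cell lines were grown in 2D in 384-well plates with a 527-compound oncology library at five concentrations spanning a 10,000-fold range, with 1000–1500 cells per well for the cultures. CellTiter-Glo luminescence gave viability after 72 h at 37 °C. The drug sensitivity score is a modified area-under-curve measure derived from dose-response curves fitted in the in-house Breeze software.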

FM-MEL-2 = tested on: FM-MEL-2
Method in brief: as §1

FM-MEL-3 = tested on: FM-MEL-3
Method in brief: as §1

FM-MEL-6 = tested on: FM-MEL-6
Method in brief: as §1

SK-MEL-28 = tested on: SK-MEL-28
Method in brief: as §1

WM165 = tested on: WM165
Method in brief: as §1

WM852 = tested on: WM852
Method in brief: as §1

SK-MEL-2 = tested on: SK-MEL-2
Method in brief: as §1

Compound	drug sensitivity score (Bowes)	drug sensitivity score (FM-MEL-2)	drug sensitivity score (FM-MEL-3)	drug sensitivity score (FM-MEL-6)	drug sensitivity score (SK-MEL-28)	drug sensitivity score (WM165)	drug sensitivity score (WM852)	drug sensitivity score (SK-MEL-2)
OC[C@H]1O[C@@H](n2cnc3c2N=CNC[C@H]3O)C[C@@H]1O [Pentostatin]	0	0	1.8	0	0	0	0	0
CC#CC(=O)N1CCC[C@H]1c1nc(-c2ccc(C(=O)Nc3ccccn3)cc2)c2c(N)nccn12 [Acalabrutinib]	0	1	2.2	3.4	0	0	0	0
CNC(=O)CN1CCC(Oc2cc3c(Nc4cccc(Cl)c4F)ncnc3cc2OC)CC1 [Sapitinib]	0	0	0	0	0	0	0	0
CC1(C)CCC(CN2CCN(c3ccc(C(=O)NS(=O)(=O)c4ccc(NCC5CCOCC5)c([N+](=O)[O-])c4)c(Oc4cnc5[nH]ccc5c4)c3)CC2)=C(c2ccc(Cl)cc2)C1 [Venetoclax]	0	0	3.6	0	0	0	0	0
CC(=O)O[C@H]1C(=O)[C@@]2(C)[C@H]([C@H](OC(=O)c3ccccc3)[C@]3(O)C[C@H](OC(=O)[C@H](O)[C@@H](NC(=O)c4ccccc4)c4ccccc4)C(C)=C1C3(C)C)[C@]1(OC(C)=O)CO[C@@H]1C[C@@H]2O [Paclitaxel]	23.3	5.3	11.9	13.7	11.5	22.2	20.5	16.5
Nc1nc2cc(-c3ccc4ncc(C(=O)N5CCOCC5)n4c3)ccc2o1 [Serabelisib]	0	0.5	0.3	0	0	0.1	0	0
CNC(=O)c1nn(C)c2c1C(C)(C)Cc1cnc(Nc3ccc(N4CCN(C)CC4)cc3)nc1-2 [Milciclib]	11	6.5	7.5	9	8.7	12	5.1	7
COc1c(OCCCN2CCOCC2)ccc2c1N=C(NC(=O)c1cnc(N)nc1)N1CCN=C21 [Copanlisib]	8.3	10.2	7.1	4.3	8.3	6.5	6.5	3.5
C[C@]12C=CC(=O)C=C1CC[C@@H]1[C@@H]2[C@@H](O)C[C@@]2(C)[C@H]1CC[C@]2(O)C(=O)CO [Prednisolone]	0	0.3	2.8	0	0	0	0	0
Cc1cc(C)c(CNC(=O)c2cc(-c3ccc(CN4CCOCC4)cc3)cc3c2cnn3C2CCCC2)c(=O)[nH]1 [EPZ-5687]	2.6	0	2.8	0.5	0	0	0	0
Cc1ccc(C(=O)Nc2cccc(C(F)(F)F)c2)cc1Nc1nc(-c2cccnc2)nc2c1cnn2C [NVP-BHG712]	0	6.8	10.6	3.6	1.3	1.9	4.7	0
Cc1cccc(CC(=O)N2CCc3c2ccc(-c2cn(C)c4ncnc(N)c24)c3F)n1	0	0	0.9	0.1	0	0	3.7	0
Nc1ncn([C@H]2C[C@H](O)[C@@H](CO)O2)c(=O)n1 [Decitabine]	0	0	0	3.4	0	0.7	0	0
Cc1nc(Nc2ncc(C(=O)Nc3c(C)cccc3Cl)s2)cc(N2CCN(CCO)CC2)n1 [Dasatinib]	1.9	0	0	0	3.4	5.3	0.1	0
COc1cccc2c1C(=O)c1c(O)c3c(c(O)c1C2=O)C[C@@](O)(C(=O)CO)C[C@@H]3O[C@H]1C[C@H](N)[C@H](O)[C@H](C)O1 [Doxorubicin]	4.2	6.7	6.8	7.8	7.8	15.1	4.8	4.9
COc1cc(NS(C)(=O)=O)ccc1Nc1c2ccccc2nc2ccccc12 [Amsacrine]	0.5	4.9	5.8	5.5	6.4	16.9	0	2.8
CC1(C)NC(=O)N(c2ccc([N+](=O)[O-])c(C(F)(F)F)c2)C1=O [Nilutamide]	1.1	0	0.4	0	0	0	0	0
Nc1ncn([C@@H]2O[C@H](CO)[C@@H](O)[C@H]2O)c(=O)n1 [Azacitidine]	2.6	3.1	8.6	4.7	0.4	4.2	0.1	1.6
CON(C)C(=O)N1N=C(c2cc(F)ccc2F)S[C@@]1(CCCN)c1ccccc1 [Filanesib]	12.5	4.7	10	11.3	4.5	17.4	23.3	16.5
Nc1nccc(-c2c(-c3ccc(F)cc3)ncn2C2CCCCC2)n1	0	0	0	0	0	0	0	0

Compound	drug sensitivity score (Bowes)	drug sensitivity score (FM-MEL-2)	drug sensitivity score (FM-MEL-3)	drug sensitivity score (FM-MEL-6)	drug sensitivity score (SK-MEL-28)	drug sensitivity score (WM165)	drug sensitivity score (WM852)	drug sensitivity score (SK-MEL-2)
O=C(NC1CCNCC1)c1n[nH]cc1NC(=O)c1c(Cl)cccc1Cl [AT7519]	21.4	7.7	12.8	19.3	10.5	20	15.3	15.1
CN(CC(=O)N(Cc1ccc(C2CCCCC2)cc1)c1ccc(C(=O)O)cc1)S(=O)(=O)c1c(F)c(F)c(F)c(F)c1F [SH-4-54]	7.1	5.2	8.2	5.8	5.4	16.1	6.4	5.1
CC[C@]12C=CCN3CC[C@@]4(c5cc([C@@]6(C(=O)OC)C[C@@H]7C[C@@H](C(C)(F)F)CN(Cc8c6[nH]c6ccccc86)C7)c(OC)cc5N(C)[C@H]4[C@@](O)(C(=O)OC)[C@@H]1OC(C)=O)[C@@H]32 [Vinflunine]	3.6	1	3.2	3.8	3.5	4.6	3.5	2.7
CCC(C)n1ncn(-c2ccc(N3CCN(c4ccc(OCC5COC(Cn6cncn6)(c6ccc(Cl)cc6Cl)O5)cc4)CC3)cc2)c1=O (configuration not stated) [Itraconazole]	4.7	1.4	2.8	0	0	0	0.9	0
CC(C)[C@@H](CS(=O)(=O)C(C)C)N1C(=O)[C@@](C)(CC(=O)O)C[C@H](c2cccc(Cl)c2)[C@H]1c1ccc(Cl)cc1 [AMG-232]	0	1.8	10.5	0	0	19	0	0
C[C@@H]1CCN(C(=O)CC#N)C[C@@H]1N(C)c1ncnc2[nH]ccc12 [Tofacitinib]	0	0	0	0	0	0	0	0
COc1cccc2c1C(=O)c1c(O)c3c(c(O)c1C2=O)C[C@@](O)(/C(CO)=N/NC(=O)CCCCCN1C(=O)C=CC1=O)C[C@@H]3O[C@H]1C[C@H](N)[C@H](O)[C@H](C)O1 [Aldoxorubicin]	4.3	6.4	8	8.6	8.8	15.2	5.8	6.3
COc1cc(C)[nH]c(=O)c1CNC(=O)c1c(C)n([C@H](C)C2CCOCC2)c2ccccc12 [CPI-360]	0	0.2	0	0.6	0	0	0	0
CCN(c1cc(-c2ccc(CN3CCOCC3)cc2)cc(C(=O)NCc2c(C)cc(C)[nH]c2=O)c1C)C1CCOCC1 [Tazemetostat]	1.5	0	0	1.3	0	0	0	0
C[C@@H](C(=O)O)c1ccc(-c2ccccc2)c(F)c1 [Tarenflurbil]	0	0	0	0	0	0	0	0
O=c1[nH]c(=O)n([C@H]2C[C@H](O)[C@@H](CO)O2)cc1C(F)(F)F [Trifluridine]	0	0	0.1	0.8	2.7	3.5	0	0
CS(=O)(=O)N1CCN(Cc2cc3nc(-c4cccc5[nH]ncc45)nc(N4CCOCC4)c3s2)CC1 [Pictilisib]	8.4	12.7	8.8	7.4	9.6	8.4	6.5	3.2
CN(c1ncccc1CNc1nc(Nc2ccc3c(c2)CC(=O)N3)ncc1C(F)(F)F)S(C)(=O)=O	6.4	3	7.1	5.2	4.7	9.1	5.3	0
Cc1nc(-c2cn3c(n2)-c2ccc(-c4cnn(C(C)(C)C(N)=O)c4)cc2OCC3)n(C(C)C)n1 [Taselisib]	2.8	7.4	4.7	6.6	5.6	4.2	3.5	0.2
C[C@@]1(C(=O)Nc2ccc(F)nc2)CCCN1c1nc(Nc2cc(C3CC3)n[nH]2)c2cccn2n1	11.7	5	17.9	6.1	2	13.4	6.9	2.9
CO[C@H]1C(=O)[C@]2(C)[C@@H](OC)C[C@H]3OC[C@@]3(OC(C)=O)[C@H]2[C@H](OC(=O)c2ccccc2)[C@]2(O)C[C@H](OC(=O)[C@H](O)[C@@H](NC(=O)OC(C)(C)C)c3ccccc3)C(C)=C1C2(C)C [Cabazitaxel]	24.3	1.6	8.2	12.1	9.1	23.2	20.3	14.8
CC#CC(=O)N1CC[C@@H](n2c(=O)n(-c3ccc(Oc4ccccc4)cc3)c3c(N)ncnc32)C1 [Tirabrutinib]	2	0	0	0	0	0	0	0
c1cn2cc(-c3ccc4cn[nH]c4c3)nc(Nc3ccc(N4CCOCC4)cc3)c2n1 [Entospletinib]	0	6.7	0	0	0	0	0	0
CC(C)(C)c1cc(NC(=O)Nc2ccc(Oc3ccnc4[nH]c(=O)cnc34)cc2F)n(-c2ccccc2)n1	10.7	11.6	14.5	4.2	10.3	12.6	5.3	4.5
